In ChEMBL document CHEMBL3580626, “Scaffold hopping of potential anti-tumor agents by WEGA: a shape-based approach” (Medchemcomm, 2014):

Experiments:
[1] = test system: HepG2; test: Cytotoxicity against human HepG2 cells assessed as reduction in cell viability after 48 hrs by CCK8 assay; assay type: functional, cell-based; details: HepG2, 48 h
[2] = Cytotoxicity against human LO2 cells assessed as reduction in cell viability after 48 hrs by CCK8 assay; assay type: cell-based; details: L02, 48 h

Structure (SMILES)	IC50 ([1]; read-out: pIC50 (converted))	IC50 [2]	IC50 ([1]; read-out: IC50)
CC(CN(C)C)CN1c2ccccc2Sc2ccccc21 (stereo unspecified) [METHYLPROMAZINE]	61.7 µM	–	–
NC(=O)N1c2ccccc2CC(=O)c2ccccc21 [OXCARBAZEPINE]	19.5 µM	> 160 µM	–
C1=Cc2ccccc2Nc2ccccc21 [IMINOSTILBENE]	> 158 µM	–	–
CCN1c2ccccc2CCc2ccc(Cl)cc21	> 158 µM	–	–
CC(=O)N1c2ccccc2CCc2ccc(N)cc21	> 158 µM	–	–
OCCN1CCN(CCCN2c3ccccc3Sc3ccc(Cl)cc32)CC1 [PERPHENAZINE]	16.2 µM	> 160 µM	–
COc1ccccc1OCCNCC(O)COc1cccc2[nH]c3ccccc3c12 (stereo unspecified) [CARVEDILOL]	17.4 µM	85 µM	–
COC1=Cc2ccccc2N(C(N)=O)c2ccccc21	> 158 µM	–	–
NC(=O)N1c2ccccc2C=Cc2ccccc21 [CARBAMAZEPINE]	> 158 µM	–	–
CC(CN1c2ccccc2S(=O)(=O)c2ccccc21)N(C)C (stereo unspecified)	> 158 µM	–	–
OCCN1CCN(CCCN2c3ccccc3Sc3ccc(C(F)(F)F)cc32)CC1 [FLUPHENAZINE]	4.37 µM	> 160 µM	4.4 µM
CN1CCN(C2=Nc3cc(Cl)ccc3Nc3ccccc32)CC1 [CLOZAPINE]	47.9 µM	–	–
c1ccc2c(c1)[nH]c1cccc(OCC3CO3)c12 (stereo unspecified)	17 µM	> 160 µM	–
Oc1cccc2[nH]c3ccccc3c12	123 µM	–	–
CC(C(=O)O)c1ccc2c(c1)[nH]c1ccc(Cl)cc12 (stereo unspecified) [CARPROFEN]	166 µM	–	–
COC1=Cc2ccccc2Nc2ccccc21	70.8 µM	–	–
c1ccc2c(c1)Nc1ccccc1O2 [PHENOXAZINE]	204 µM	–	–
O=C(Cl)N1c2ccccc2C=Cc2ccccc21	33.9 µM	–	–
CC(=O)N1c2ccccc2CCc2ccc(Cl)cc21	> 158 µM	–	–
c1ccc2c(c1)CCc1ccccc1N2	> 158 µM	–	–
